From publication PMC4735555, “Crystal structure of the N-myristoylated lipopeptide-bound MHC class I complex” (Nature Communications, 2016)

What was measured:
Mamu-A*02 = test: Biolayer interferometry binding to β2m-linked Mamu-A*02; design: species or system rhesus macaque; conditions: Octet RED96; biotinylated β2m-linked Mamu-A*02 (refolded with YY9), negative control; lipopeptide 10 μM, 45 min; pH 7.5, 2% DMSO; 30 °C
Excerpt: (§1) Single-chain MHC proteins in which β2m was linked via a Gly-Ser linker (GGGGSGGSGSGGGSS) to the ectodomain of either Mamu-B*098 or Mamu-A*02, followed by a biotinylation sequence peptide (LHHILDAQKMVWNHR), were also expressed in E. coli and were purified in a similar manner to the trimer complex of Mamu-B*098, β2m and C14nef5. The β2m-linked Mamu-B*098 protein was refolded without C14nef5, whereas the β2m-linked Mamu-A*02 protein was refolded in the presence of the YY9 peptide (YTSGPGIRY). These recombinant proteins (3 mg) were biotinylated by being incubated for 12 h at 20 °C with 2 μg of BirA enzyme (Sigma-Aldrich, St Louis, MO) in a biotinylation buffer containing 100 mM Tris-HCl pH 8.0, 5 mM MgCl2, 4.5 mM ATP and 4 mM D-biotin, and were purified by size-exclusion chromatography.
(§2) The binding of ligands to MHC class I molecules was analysed using the Octet RED96 system equipped with a streptavidin-conjugated biosensor (Pall ForteBio, Menlo Park, CA) according to the manufacturer's instructions. Biotinylated β2m-linked Mamu-B*098 and Mamu-A*02 proteins were immobilized on the sensor tip surface with a signal magnitude of ∼5.0 nm. […] After reference subtraction, binding signals were analysed using the BIAevaluation 3.1 software. […]

2N5.1 TCR = test: SPR binding of soluble 2N5.1 TCR to antigen-loaded Mamu-B*098; design: species or system rhesus macaque; conditions: in words; Biacore 3000, 30 °C; soluble 2N5.1 TCR αβ dimer; lipopeptide-loaded Mamu-B*098 immobilized; pH 7.5
Excerpt: as §1
TCR dimers were generated by the disulfide-linked TCR method. […]
as §2, with “instructions.” for “instructions. Biotinylated β2m-linked Mamu-B*098 and Mamu-A*02 proteins were immobilized on the sensor tip surface with a signal magnitude of ∼5.0 nm.”

[1] = tested on: 2N5.1 (LLC-MK2 cells transfected with other rhesus MHC class I genes); test: Ag presentation by other (non-B*098) Mamu class I LLC-MK2 transfectants to 2N5.1; format: cell-based, rhesus macaque; conditions: LLC-MK2 transfected with each rhesus MHC class I cDNA clone, other than Mamu-B*098; IFN-γ; C14nef5
Procedure: Figure 1 Identification of Mamu-B*098 as a lipopeptide Ag-presenting molecule. (a) LLC-MK2 cells transfected with each of the rhesus MHC class I genes were tested for their ability to present C14nef5 to 2N5.1. […] PBMCs obtained from a donor with the potential to present C14nef5 to 2N5.1 were used as a positive control. Experiments were performed in triplicate. Mean values with s.e.m. are shown. (b) The binding of lipopeptide Ags to recombinant β2m-linked Mamu-B*098 and Mamu-A*02 proteins was monitored by biolayer interferometry. Representative data from three independent experiments are shown. Mamu-A*02, a rhesus MHC class I allele known to bind 9-mer peptides, was used as a negative control. (c) Plate-coated MHC class I molecules were tested for their ability to present lipopeptide Ags to 2N5.1. The Ag-specific T-cell response was assessed by measuring the amount of IFN-γ released into the culture medium. Mean values with s.e.m. are shown. […] The original data (coloured as indicated) are depicted with the curve fit (grey) overlaid. The steady-state affinity plot (inset) is also shown. Three independent experiments were performed and mean equilibrium-dissociation constant (KD) values ±s.d. are shown. (e) Amino acid sequences of Mamu-B*098, HLA-B*27:09, Mamu-B*17:01 and human CD1a are shown. […] Solid and open triangles indicate paired and unpaired cysteine residues, respectively. […]

Substance: C14-Gly-Gly-Ala-Ile-Ser [C14nef5, N-myristoylated 5-mer peptide (C14-Gly-Gly-Ala-Ile-Ser; C14nef5) derived from the SIV Nef protein]
- physical interaction with immobilized Mamu-A*02 (biolayer interferometry) (Mamu-A*02): not for the control protein Mamu-A*02
- interaction of 2N5.1 TCR with lipopeptide-loaded Mamu-B*098 (SPR) (2N5.1 TCR): high-affinity interaction
- Ag presentation capacity of other Mamu class I transfectants [1]: None of the cell transfectants exhibited the Ag presentation capacity
